Values of other authors in US20080020052A1, “Vascular Embolus Of Paclitaxel-Sodium Alginate Microsphere And Its Preparation” (priority 2004, published 2008).

Question: With `CC(=O)O[C@H]1C(=O)[C@@]2(C)[C@H]([C@H](OC(=O)c3ccccc3)[C@]3(O)C[C@H](OC(=O)[C@H](O)[C@@H](NC(=O)c4ccccc4)c4ccccc4)C(C)=C1C3(C)C)[C@]1(OC(C)=O)CO[C@@H]1C[C@@H]2O` [Paclitaxel, paclitaxel] as the molecule, how does the “plasma and protein binding ratio” value read?
Answer: 89-98%
